# Tests used:
# KOR [1] = settings: electrically stimulated guinea pig ileal longitudinal muscle; cited from earlier work
# KOR [2] = settings: binding affinity; cited from earlier work
# MOR [3] = molecular target: T1, MOR (Mus musculus, UniProt P42866); assay: biochemical; settings: for Emax: read-out: MOR [35S]GTPγS Binding %Emax of DAMGO; for less potent than naltrexone in the MOR [35S]GTPγS binding assay: EC50 compared with naltrexone
# hMOR = hMOR (Homo sapiens, UniProt P35372); assay: Ca2+ flux assay in Gαqi5 transfected hMOR-CHO cells; assay type: cell-based; settings: for agonism, increase of intracellular Ca2+ level: agonism study, compared to DAMGO
# Chain of hMOR (P35372 whole entry): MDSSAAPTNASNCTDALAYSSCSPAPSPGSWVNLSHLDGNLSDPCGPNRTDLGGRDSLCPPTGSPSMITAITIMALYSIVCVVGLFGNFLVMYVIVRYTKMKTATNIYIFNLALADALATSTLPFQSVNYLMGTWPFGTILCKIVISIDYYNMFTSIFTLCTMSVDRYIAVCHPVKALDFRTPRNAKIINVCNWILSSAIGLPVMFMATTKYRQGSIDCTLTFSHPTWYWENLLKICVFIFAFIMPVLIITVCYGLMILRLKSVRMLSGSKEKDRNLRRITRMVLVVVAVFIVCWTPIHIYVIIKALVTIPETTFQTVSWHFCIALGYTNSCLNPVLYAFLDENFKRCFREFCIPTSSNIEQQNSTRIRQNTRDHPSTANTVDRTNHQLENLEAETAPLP
# DOR [4] = molecular target: T2, DOR (Mus musculus, UniProt P32300); assay: DOR [35S]GTPγS binding functional assay; assay type: biochemical; settings: vs naltrexone
# T2 sequence (P32300 whole entry): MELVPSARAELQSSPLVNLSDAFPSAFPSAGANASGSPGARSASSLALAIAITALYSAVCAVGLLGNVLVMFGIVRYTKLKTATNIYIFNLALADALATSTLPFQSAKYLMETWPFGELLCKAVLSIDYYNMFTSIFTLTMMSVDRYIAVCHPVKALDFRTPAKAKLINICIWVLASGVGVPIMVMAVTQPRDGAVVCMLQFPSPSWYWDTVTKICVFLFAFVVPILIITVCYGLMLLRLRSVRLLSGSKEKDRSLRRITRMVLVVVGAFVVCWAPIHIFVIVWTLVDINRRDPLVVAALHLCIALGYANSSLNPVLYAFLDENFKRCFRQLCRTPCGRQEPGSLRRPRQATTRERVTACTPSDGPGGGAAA
# Swiss-Webster mice [5] = assay: Warm-water tail immersion assay, agonism study; assay type: in vivo, mouse
# MOR [6] = molecular target: T1, MOR; assay type: binding
# KOR [7] = molecular target: KOR (Mus musculus, UniProt P33534); assay: KOR [35S]GTPγS binding functional assay; assay type: biochemical
# Chain of KOR (Mus musculus, UniProt P33534) (P33534 whole entry): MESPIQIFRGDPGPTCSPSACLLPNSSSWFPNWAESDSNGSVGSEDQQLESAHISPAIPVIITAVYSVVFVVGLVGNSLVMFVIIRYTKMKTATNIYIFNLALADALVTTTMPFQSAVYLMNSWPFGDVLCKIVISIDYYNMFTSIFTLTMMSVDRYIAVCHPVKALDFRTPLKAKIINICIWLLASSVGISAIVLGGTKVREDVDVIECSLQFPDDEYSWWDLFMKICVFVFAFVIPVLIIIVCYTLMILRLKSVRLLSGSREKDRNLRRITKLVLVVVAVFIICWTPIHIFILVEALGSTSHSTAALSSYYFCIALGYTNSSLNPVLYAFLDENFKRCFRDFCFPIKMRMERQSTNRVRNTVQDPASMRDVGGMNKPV
# DOR [8] = molecular target: T2, DOR; assay: Radioligand competition binding assay, [3H]naltrindole, mDOR-CHO cell membranes; settings: ratio of Ki values, MOR vs DOR
# Swiss-Webster mice [9] = assay: Opioid withdrawal assays in chronic morphine-pelleted mice; assay type: in vivo, mouse
# [10] = 1 mg/kg s.c., morphine-pelleted mice, counted over 20 min
# T1 sequence (P42866 whole entry): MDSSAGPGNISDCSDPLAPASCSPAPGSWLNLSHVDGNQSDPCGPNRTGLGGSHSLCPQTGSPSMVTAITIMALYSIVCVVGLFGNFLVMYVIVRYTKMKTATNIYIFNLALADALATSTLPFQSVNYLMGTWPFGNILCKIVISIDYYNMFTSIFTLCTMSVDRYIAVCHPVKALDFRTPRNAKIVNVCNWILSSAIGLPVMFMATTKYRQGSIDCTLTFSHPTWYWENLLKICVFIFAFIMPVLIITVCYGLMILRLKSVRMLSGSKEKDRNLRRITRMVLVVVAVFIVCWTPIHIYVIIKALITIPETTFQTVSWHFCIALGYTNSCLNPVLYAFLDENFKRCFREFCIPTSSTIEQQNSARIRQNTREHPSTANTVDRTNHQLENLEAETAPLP
compound,measurement,setting,value
"NC(N)=Nc1ccc2[nH]c3c(c2c1)C[C@@]1(O)[C@H]2Cc4ccc(O)c5c4[C@@]1(CCN2CC1CC1)[C@H]3O5 [5’-GNTI, 5’-guanidinonaltrindole]",functional activity at KOR,KOR [1],KOR antagonist
same,5’-GNTI more potent than 6’-GNTI at the KOR,KOR [2],8 fold
NC(N)=Nc1ccc2c3c([nH]c2c1)[C@@H]1Oc2c(O)ccc4c2[C@@]12CCN(CC1CC1)[C@H](C4)[C@]2(O)C3 [6’-GNTI],functional activity at KOR,KOR [1],KOR full agonist
"O=C(Cc1cc2ccccc2cn1)N[C@H]1CC[C@@]2(O)[C@H]3Cc4ccc(O)c5c4[C@@]2(CCN3CC2CC2)[C@H]1O5 [Compound 1, 17-Cyclopropylmethyl-3,14β-dihydroxy-4,5α-epoxy-6α-[2-(isoquinolin-3-yl)acetamido)morphinan]",Emax,MOR [3],18.6 ± 1.1%
"O=C(CCc1cc2ccccc2cn1)N[C@H]1CC[C@@]2(O)[C@H]3Cc4ccc(O)c5c4[C@@]2(CCN3CC2CC2)[C@H]1O5 [Compound 2, 17-Cyclopropylmethyl-3,14β-dihydroxy-4,5α-epoxy-6α-[3-(isoquinolin-3-yl)propanamido)morphinan]",Emax,MOR [3],27.4 ± 0.35%
"O=C(CNC(=O)c1cc2ccccc2cn1)N[C@H]1CC[C@@]2(O)[C@H]3Cc4ccc(O)c5c4[C@@]2(CCN3CC2CC2)[C@H]1O5 [Compound 3, 17-Cyclopropylmethyl-3,14β-dihydroxy-4,5α-epoxy-6α-[2-(isoquinoline-3-carboxamido)acetamido}morphinan]",Emax,MOR [3],< 15%
"COc1c(C(=O)N[C@H]2CC[C@@]3(O)[C@H]4Cc5ccc(O)c6c5[C@@]3(CCN4CC3CC3)[C@H]2O6)nc(Cl)c2ccccc12 [Compound 4, 17-Cyclopropylmethyl-3,14β-dihydroxy-4,5α-epoxy-6α-(1-chloro-4-methoxyisoquinoline-3-carboxamido)morphinan]","agonism, increase of intracellular Ca2+ level",hMOR,did not show any significant agonist activity
same,higher potency of 4 to 11 in Ca2+ flux antagonism study,hMOR; vs compound 11,100 fold
same,"DOR [35S]GTPγS potency, less potent compared to naltrexone",DOR [4],7- to 25 fold
same,"% MPE, intrinsic antinociceptive effect","Swiss-Webster mice [5]; 10 mg/kg s.c., 20 min after injection, mice, 56 °C",full agonist
same,difference between the potencies of 4 and morphine in the tail immersion assay,Swiss-Webster mice [5]; vs morphine,~9 fold
same,difference between the potencies of 4 and morphine in the MOR [35S]GTPγS binding assay,MOR [3],~70 fold
same,4 more potent than 11 in the radioligand competition binding assay,MOR [6],about 10 fold
same,Emax,"KOR [7]; read-out: KOR [35S]GTPγS Binding % Emax of U50,488",7.1 ± 0.5%
"O=C(N[C@H]1CC[C@@]2(O)[C@H]3Cc4ccc(O)c5c4[C@@]2(CCN3CC2CC2)[C@H]1O5)c1nc(Cl)c2ccccc2c1O [Compound 5, 17-Cyclopropylmethyl-3,14β-dihydroxy-4,5α-epoxy-6α-(1-chloro-4-hydroxyisoquinoline-3-carboxamido)morphinan]",Emax,MOR [3],19.8 ± 0.8%
same,Selectivity δ/µ,DOR [8],> 15
"O=C(N[C@H]1CC[C@@]2(O)[C@H]3Cc4ccc(O)c5c4[C@@]2(CCN3CC2CC2)[C@H]1O5)c1ncc2ccccc2c1O [Compound 6, 17-Cyclopropylmethyl-3,14β-dihydroxy-4,5α-epoxy-6α-(4-hydroxyisoquinoline-3-carboxamido)morphinan]",Emax,MOR [3],20.5 ± 0.9%
"O=C(N[C@H]1CC[C@@]2(O)[C@H]3Cc4ccc(O)c5c4[C@@]2(CCN3CC2CC2)[C@H]1O5)c1ncc2ccccc2n1 [Compound 7, 17-Cyclopropylmethyl-3,14β-dihydroxy-4,5α-epoxy-6α-(4-quinazoline-2-carboxamido)morphinan]",Emax,MOR [3],21.6 ± 0.8%
"N#Cc1nc(C(=O)N[C@H]2CC[C@@]3(O)[C@H]4Cc5ccc(O)c6c5[C@@]3(CCN4CC3CC3)[C@H]2O6)cc2ccccc12 [Compound 9, 17-Cyclopropylmethyl-3,14β-dihydroxy-4,5α-epoxy-6α-(1-cyanoisoquinoline-3-carboxamido)morphinan]",Emax,MOR [3],37.5 ± 0.7%
"Cc1nc(C(=O)N[C@H]2CC[C@@]3(O)[C@H]4Cc5ccc(O)c6c5[C@@]3(CCN4CC3CC3)[C@H]2O6)cc2ccccc12 [Compound 10, 17-Cyclopropylmethyl-3,14β-dihydroxy-4,5α-epoxy-6α-(1-methylisoquinolin-3-carboxamido)morphinan]",Emax,MOR [3],22.2 ± 0.4%
"O=C(N[C@H]1CC[C@@]2(O)[C@H]3Cc4ccc(O)c5c4[C@@]2(CCN3CC2CC2)[C@H]1O5)c1cc2cc([N+](=O)[O-])ccc2cn1 [Compound 11, 17-Cyclopropylmethyl-3,14β-dihydroxy-4,5α-epoxy-6α-(6-nitroisoquinoline-3-carboxamido)morphinan]","agonism, increase of intracellular Ca2+ level",hMOR,no apparent agonism
same,"DOR [35S]GTPγS potency, less potent compared to naltrexone",DOR [4],7- to 25 fold
same,less potent than naltrexone in the MOR [35S]GTPγS binding assay,MOR [3],≥ 200 fold
same,"KOR [35S]GTPγS potency, lower than that of NAQ",KOR [7]; vs NAQ,~6 fold
same,"KOR [35S]GTPγS potency, less potent than naltrexone",KOR [7]; vs naltrexone,~80 fold
same,withdrawal symptoms in placebo-pelleted mice,"Swiss-Webster mice [9]; 30 mg/kg s.c., placebo-pelleted mice",did not induce any significant withdrawal symptoms
same,"escape jumps in morphine-pelleted mice, dose dependence","Swiss-Webster mice [9]; s.c., doses up to 100 mg/kg, plateau at 100 mg/kg",did not precipitate significant jumps in morphine-pelleted mice until 30 mg/kg
same,wet-dog shakes in morphine-pelleted mice compared to naltrexone,"Swiss-Webster mice [9]; s.c., doses up to 100 mg/kg, vs naltrexone 1 mg/kg",significantly less wet-dog shakes
"O=C(N[C@H]1CC[C@@]2(O)[C@H]3Cc4ccc(O)c5c4[C@@]2(CCN3CC2CC2)[C@H]1O5)c1cc2ccc([N+](=O)[O-])cc2cn1 [Compound 12, 17-Cyclopropylmethyl-3,14β-dihydroxy-4,5α-epoxy-6α-(7-nitroisoquinoline-3-carboxamido)morphinan]",less potent than naltrexone in the MOR [35S]GTPγS binding assay,MOR [3],≥ 200 fold
"CN(C)c1ccc2cc(C(=O)N[C@H]3CC[C@@]4(O)[C@H]5Cc6ccc(O)c7c6[C@@]4(CCN5CC4CC4)[C@H]3O7)ncc2c1 [Compound 13, 17-Cyclopropylmethyl-3,14β-dihydroxy-4,5α-epoxy-6α-(7-dimethylaminoisoquinoline-3-carboxamido)morphinan]",Selectivity δ/µ,DOR [8],> 15
"COc1cc2cnc(C(=O)N[C@H]3CC[C@@]4(O)[C@H]5Cc6ccc(O)c7c6[C@@]4(CCN5CC4CC4)[C@H]3O7)cc2cc1OC [Compound 14, 17-Cyclopropylmethyl-3,14β-dihydroxy-4,5α-epoxy-6α-(6,7-dimethoxyisoquinoline-3-carboxamido)morphinan]",less potent than naltrexone in the MOR [35S]GTPγS binding assay,MOR [3],≥ 200 fold
"CN1Cc2ccccc2C[C@H]1C(=O)N[C@H]1CC[C@@]2(O)[C@H]3Cc4ccc(O)c5c4[C@@]2(CCN3CC2CC2)[C@H]1O5 [Compound 15, 17-Cyclopropylmethyl-3,14β-dihydroxy-4,5α-epoxy-6α-[(S)-(2-methyl-1,2,3,4-tetrahydroisoquinoline-3-carboxamido)]morphinan]",Emax,MOR [3],24.8 ± 1.3%
"O=C(N[C@H]1CC[C@@]2(O)[C@H]3Cc4ccc(O)c5c4[C@@]2(CCN3CC2CC2)[C@H]1O5)c1cc2ccccc2cn1 [NAQ, 17-cyclopropylmethyl-3,14β-dihydroxy-4,5α-epoxy-6α-(isoquinoline-3′-carboxamido)morphinan, reference compound]","DOR [35S]GTPγS potency, less potent compared to naltrexone",DOR [4],7- to 25 fold
"O=C1CC[C@@]2(O)[C@H]3Cc4ccc(O)c5c4[C@@]2(CCN3CC2CC2)[C@H]1O5 [NTX, naltrexone, reference compound]",escape jumps,Swiss-Webster mice [9]; [10],30.0 ± 12.1 times
same,wet-dog shakes,Swiss-Webster mice [9]; [10],14.8 ± 2.2 times

# From paper PMC4380750 (Bioorganic & medicinal chemistry, 2015)
